{
  "source": "patent EP3797781A1",
  "about": "“USE OF EC-7072 AND SYNERGIC COMPOSITIONS THEREOF IN TREATMENT OF CHRONIC LYMPHOCYTIC LEUKEMIA” (priority 2019, dated 2021)",
  "key": {"BCL2": {"tested_on": "BCL2", "test": "BCL2 levels by intracellular flow cytometry in isolated CLL cells", "assay_type": "cell-based, human", "details": "200 nM, 12 and 18 hours; isolated CLL cells (n = 6)", "experimental": "The dysregulation of BCL2 expression in primary CLL by EC-7072 was evaluated by: • (i) incubating isolated CLL cells (n = 6) from patients with CLL following treatment with EC-7072 (200 nM) for 6 hours and extracting total RNA. Relative expression of BLC2 was determined by qPCR to obtain the mean relative expression to the control (DMSO) condition (Figure 6F); • (ii) incubating isolated CLL cells (n = 6) following treatment with 200 nM EC-7072 for 12 and 18 hours. BCL2 levels were evaluated by intracellular flow cytometry (Figure 6G); • (iii) incubating isolated T cells (n = 3) from patients with CLL following treatment with EC-7072 (200 nM) for 6 hours and extracting total RNA. Relative expression of BLC2 was determined by qPCR to obtain the mean relative expression to the control (DMSO) condition (Figure 6H); • (iv) incubating PBMCs (Figure 6I) and isolated T cells (Figure 6J) from patients with CLL (n = 3) following treatment with 200 nM EC-7072 for 24 hours. T-cell death and apoptosis were assessed by DiOC6(3)/PI staining to obtain percentages of viable [DiOC6(3)^+] cells and the mean percentages of apoptotic [DiOC6(3)^low PI^-] and dead [PI^+] cells."}, "healthy B cells": {"tested_on": "healthy B cells", "test": "Viability of healthy B cells from healthy donors by DiOC6(3)/PI staining", "assay_type": "cell-based, human", "details": "200 nM, 24 hours; PBMCs from healthy donors (n = 20); Figure 1F", "experimental": "Cell viability and apoptosis were evaluated by double-staining with the mitochondrial inner transmembrane potential (ΔΨm)-sensitive dye DiOC6(3) (3,3'-dihexyloxacarbocyanine iodide; Sigma-Aldrich) and the exclusion dye propidium iodide (PI; Immunostep), allowing identification of apoptotic [DiOC6(3)^low PI^-] and dead [PI^+] cells as per Proc. Natl. Acad. Sci. U.S.A. (2014) 111(8):3020-3025 and Methods Mol. Biol. (2016) 1419:1-16. Briefly, PBMCs were resuspended in culture medium containing 20 nM DiOC6(3) and incubated for 30 minutes at 37 °C. Then, PI (1 µg/mL) was added and cells were further incubated for 10 minutes at room temperature (RT). Cells were analyzed by flow cytometry considering DiOC6(3)^+PI^- cells as viable. In some experiments, apoptosis was evaluated by staining with Annexin V/PI. […]\nThe in vitro cytotoxic activity of EC-7072 against primary CLL cells was assessed by: • (i) incubating PBMCs isolated from patients with CLL (n = 13) following treatment with increasing concentrations of EC-7072 (0 - 400 nM) for 24 hours. Numbers of leukemia cells were evaluated by flow cytometry and normalized to their respective control (DMSO) condition for each individual patient to obtain percentage of leukemia cells (Figure 1A); • (ii) incubating PBMCs from patients with CLL (n = 10) with or without EC-7072 (100-400 nM) for 24 hours. […]"}, "OP9 cells": {"tested_on": "OP9 cells", "test": "Viability of OP9 stromal cells exposed to EC-7072", "assay_type": "cell-based", "details": "exposure to EC-7072 for 24 hours"}},
  "data": [
    {"smiles": "CO[C@@H]([C@@H]1Cc2cc3cc(O[C@H]4C[C@@H](O[C@H]5C[C@@H](O)[C@H](O)[C@@H](C)O5)[C@H](O)[C@@H](C)O4)c(C)c(O)c3c(O)c2C(=O)[C@H]1O[C@H]1C[C@@H](O[C@H]2C[C@@H](O[C@H]3C[C@](C)(O)[C@H](O)[C@@H](C)O3)[C@@H](O)[C@@H](C)O2)[C@H](O)[C@@H](C)O1)[C@@H](O)C(C)=O", "note": "[EC-7072, mithramycin SK]", "values": [
      {"measurement": "protein levels of BCL2", "setting": "BCL2", "result": "mild, but significant, decrease"},
      {"measurement": "viability of healthy B cells", "setting": "healthy B cells", "result": "triggered death of normal B cells"},
      {"measurement": "viability of OP9 cells", "setting": "OP9 cells", "result": "did not affect their viability"}
    ]}
  ]
}
